In paper PMC8044163, “Vitamin D and lumisterol derivatives can act on liver X receptors (LXRs)” (Scientific Reports, 2021):

Key:
[1] = test system: LXRα/β binding to the LXRE within the ABCA1 promoter region; experiment: ChIP assay in HaCaT keratinocytes; format: cell-based, human; details: 10^–7 M, 24 h
Excerpt: We followed protocols described in Ref.[40]. […] The cells were harvested and in vivo crosslinking, lysis and sonication of the chromatin, as well as following steps of ChIP assay, were done using Magna ChiP G Kit 0002 (Millipore). […] The purified DNA fragments were PCR amplified with the following sequence of PCR primers for human ABCA1 LXR-responsive element (LXRE): Forward: [NT], Reverse: [NT] and for human GAPDH as a reference gene: Forward: [NT], Reverse: [NT] (Eurofins Genomics). The PCR reaction was performed using Dream Taq Green PCR Master Mix (2×) (Thermo Scientific, cat. no. K1081) according to the following procedure: initial denaturation: 95 °C for 3 min; denaturation: 95 °C for 30 s (× 35 cycles); annealing: 58 °C for 30 s (× 35 cycles in the same cycles with denaturation); extension: 72 °C for 1 min; final extension: 72 °C for 15 min. The detection of amplification product was done by standard agarose gel electrophoresis with EtBr using Invitrogen iBright CL1000 Imaging System, with # SM Gene Ruler 1 kb Plus DNA Ladder (Thermo Scientific) as a marker.

brains of SKH-1 mice = experiment: LXR-dependent gene expression in brain of mice after subcutaneous injection; format: in vivo, mouse; details: 6 h, SKH-1-M mice
Method: Adult hairless mice SKH-1 (Male, 16 weeks old) and Ptch^+/−/SKH-1 (Male, 18 weeks old) were injected subcutaneously with 20 µg and 10 µg/kg of 20(OH)D3, respectively, dissolved in ethanol, further diluted in propylene glycol (PG) and saline (0.9%) sequentially (1:19:80, v/v/v). Controls were injected with the vehicle without the drug. )After 6 h the animals were killed by halothane followed by cervical dislocation and brains were collected for RNA and protein extraction protocols. The procedures followed the guidelines and approvals of the Institute Animal Care and Use Committee of the University of Alabama at Birmingham (IACUC).
RNA isolated from either fibroblasts, HaCaT cells or brain was submitted for cDNA synthesis (High Capacity cDNA Reverse Transcription Kit with RNase Inhibitor, Applied Biosystems) following the manufacturers’ protocols. RT-PCR was carried out using Cyber green, in triplicates; as previously described. Approximately, 750 ng of cDNA was used for PCR reactions. GAPDH and CIC-B were used as internal controls. Primer sequences are listed in Supplementary Table 27. Data were analyzed using GraphPad Prism statistical software one way ANOVA or t-test, where appropriate; *p < 0.05; **p < 0.01; ***p < 0.001.

LXRα/β binding to the LXRE within the ABCA1 promoter region (ChIP) [1] | Compound | LXR-dependent gene expression in brain (brains of SKH-1 mice; 10 µg/kg) | LXR-dependent gene expression in brain (brains of SKH-1 mice; 20 µg/kg)
significant stimulation | C=C1/C(=C\C=C2/CCC[C@]3(C)[C@@H]([C@H](C)CCCC(C)(C)O)CC[C@@H]23)C[C@@H](O)C[C@@H]1O [1,25(OH)2D3, reference compound] |  | 
 | C=C1CC[C@H](O)C/C1=C/C=C1\CCC[C@@]2(C)[C@H]1CC[C@@H]2[C@@](C)(O)CCCC(C)C [20(OH)D3] | stimulated expression of Abca1, Abcg1, Abcg5, ApoE, Fas and Cyp7a1 | stimulated expression of Lpl, Abca1, ApoE and Cyp7a1
